This is an account of results in publication PMC6553790 (PLoS Pathogens, 2019).

“Also recorded” adds a separate entry of the source.

In this experiment the test system is P. falciparum Cam3.II lines. Briefly: Isobologram analyses (fixed-ratio drug combinations). Type of experiment: cell-based, Plasmodium falciparum. The procedure:
Assays were performed with fixed ratios of drug combinations (1:0, 4:1, 2:1, 1:1, 1:2, 1:4, and 0:1), tested in duplicate. Combinations were prepared from 16×IC50 drug stocks and tested across a range of two-fold dilutions. Assays were conducted with asynchronous cultures exposed for 72 hr or with tightly synchronized rings or trophozoites (tested at 0–3 hr or 24–27 hr post-invasion, respectively) exposed for 3 hr. Post-pulse drug washouts were conducted as described above for in vitro determination of IC50 levels. IC50 values were derived for each compound tested alone, and fractional IC50 (FIC50) values were determined for each compound tested in combination (FIC50 = […]) and plotted for each drug combination. For each combination, the mean of the sums of FIC50 values at each combination (mean ΣFIC50) was also calculated and the results illustrated using heat maps.

Setting [1] is: combined with WLL, Asynchronous, 72 hr, Cam3.II K13C580Y.
[2] abbreviates: combined with WLL, Asynchronous, 72 hr, Cam3.II K13WT.
Where [3] appears, read: combined with WLW, Asynchronous, 72 hr, Cam3.II K13C580Y.
[4] abbreviates: combined with WLW, Asynchronous, 72 hr, Cam3.II K13WT.
Where [5] appears, read: asynchronous parasites, rings and trophozoites (S1 Fig).
Where [6] appears, read: combined with WLL, Rings, 3 hr exposure, Cam3.II K13C580Y.
Setting [7] is: combined with WLL, Rings, 3 hr exposure, Cam3.II K13WT.
[8] abbreviates: combined with WLL, Trophozoites, 3 hr exposure, Cam3.II K13C580Y.
[9] abbreviates: combined with WLL, Trophozoites, 3 hr exposure, Cam3.II K13WT.
[10] abbreviates: combined with WLW, Rings, 3 hr exposure, Cam3.II K13C580Y.
The mark [11] stands for this setting: combined with WLW, Rings, 3 hr exposure, Cam3.II K13WT.
[12] abbreviates: combined with WLW, Trophozoites, 3 hr exposure, Cam3.II K13C580Y.
Where [13] appears, read: combined with WLW, Trophozoites, 3 hr exposure, Cam3.II K13WT.
Setting [14] is: asynchronous parasites, early rings and trophozoites, Cam3.II K13WT and K13C580Y.
The mark [15] stands for this setting: across asynchronous parasites, early rings and trophozoites.

`C[C@@H]1C[C@@H]([C@H](O)CC2CC(=O)NC(=O)C2)C(=O)[C@@H](C)C1` [CHX, cycloheximide]: the “Interaction with WLL or WLW” value (asynchronous parasites, 72 hr) is “antagonism”. Moreover, the “Mean of the sums of FIC50 (mean ΣFIC50)” value under setting [1] was found to be 1.40, the “Mean of the sums of FIC50 (mean ΣFIC50)” value under setting [2] worked out at 1.44, the “Mean of the sums of FIC50 (mean ΣFIC50)” value under setting [3] was 1.37 and the “Mean of the sums of FIC50 (mean ΣFIC50)” value under setting [4] is listed as 1.29.
The matching figures for `O=C(O)CCc1cccc2c1B(O)OC2` [AN3661]: “antagonism”, 1.58, 1.69, 1.63 and 1.64.
The matching figures for `CC(=O)N1CCN(c2ccc(CN(C(=O)/C=C/c3ccc(C(C)(C)C)cc3)[C@@H](Cc3ccccc3)C(=O)N3CCN(Cc4ccc(C#N)cc4)CC3)cc2)CC1` [ACT-451840]: “antagonism”, 1.27, 1.34, 1.14 and 1.16.
On the same counts, the results for `C[C@H]1Cc2c([nH]c3cc(Cl)c(F)cc23)[C@@]2(N1)C(=O)Nc1ccc(Cl)cc12` [NITD609] are “antagonism”, 1.67, 1.58, 1.44 and 1.39.
Consider `CC1(C)C(N(O)C(=O)Nc2ccc(Cl)cc2)N(c2ccc(Cl)cc2)C(=O)N1CC(=O)N/N=C/C=C/c1ccc([N+](=O)[O-])o1` (centres unmarked) [ESI, eeyarestatin I], for which the “Interaction with WLW (isobologram)” value is listed as “additive” (asynchronous parasites and trophozoites); “Mild synergy” (early ring stage). Besides, under setting [5], the “Interaction with WLL (isobologram)” value was “largely additive”. Also, the “Mean of the sums of FIC50 (mean ΣFIC50)” value reads like this: under setting [1], 1.29; under setting [2], 1.28; under setting [6], 1.09; under setting [7], 1.05; under setting [8], 1.05; under setting [9], 1.19. Further, the “Mean of the sums of FIC50 (mean ΣFIC50)” value runs as follows: under setting [3], 0.97; under setting [4], 0.98; under setting [10], 0.80; under setting [11], 0.73; under setting [12], 1.08; under setting [13], 0.97.
In the case of `CN(C)c1ccc2nc3ccc(=[N+](C)C)cc-3sc2c1` [MB, methylene blue], the “Interaction with WLW (isobologram)” value under setting [14] was “synergy”. Further, under setting [5], the “Interaction with WLL (isobologram)” value is “synergy with WLL was limited to the early ring stage”. In addition, the “Mean of the sums of FIC50 (mean ΣFIC50)” value reads like this: under setting [1], 1.20; under setting [2], 1.22; under setting [6], 0.84; under setting [7], 0.87; under setting [3], 0.83; under setting [4], 0.89. Moreover, the “Mean of the sums of FIC50 (mean ΣFIC50)” value by setting is: under setting [10], 0.36; under setting [11], 0.40; under setting [12], 0.78; under setting [13], 0.71.
`CCCCN(CCCC)CC(O)c1cc(Cl)cc2c1-c1ccc(Cl)cc1/C2=C/c1ccc(Cl)cc1` (centres unmarked) [LMF, lumefantrine]: the “Interaction with WLL or WLW” value is, setting by setting: under setting [15], “Additive to antagonistic”; (asynchronous parasites, 72 hr) “mild antagonism”; (early rings and trophozoites) “largely additive”. In addition, the “Mean of the sums of FIC50 (mean ΣFIC50)” value is on record as 1.24 under setting [1]; 1.42 under setting [2]; 1.13 under setting [6]; 1.23 under setting [7]; 1.24 under setting [8]; 1.12 under setting [9]. The “Mean of the sums of FIC50 (mean ΣFIC50)” value is 1.07 under setting [3]; 1.32 under setting [4]; 0.98 under setting [10]; 0.95 under setting [11]; 1.01 under setting [12]; 1.16 under setting [13].
In the case of `CCN(CC)CCCC(C)Nc1ccnc2cc(Cl)ccc12` (centres unmarked) [CQ, chloroquine], the “Interaction with WLL or WLW” value under setting [15] is recorded as “Additive to antagonistic; also recorded: moderate to potent antagonism”. Besides, the “Mean of the sums of FIC50 (mean ΣFIC50)” value came out at 1.53 under setting [1]; 1.41 under setting [2]; 1.70 under setting [6]; 1.69 under setting [7]; 1.75 under setting [8]; 1.89 under setting [9]. Further, the “Mean of the sums of FIC50 (mean ΣFIC50)” value is, setting by setting: under setting [3], 1.36; under setting [4], 1.29; under setting [10], 1.54; under setting [11], 1.45; under setting [12], 1.41; under setting [13], 1.57.
On to `Clc1ccc2c(N3CCN(CCCN4CCN(c5ccnc6cc(Cl)ccc56)CC4)CC3)ccnc2c1` [PPQ, piperaquine], for which, under setting [15], the “Interaction with WLL or WLW” value was “Additive to antagonistic; also recorded: antagonism observed in asynchronous parasites and early rings was attenuated in trophozoites”. The “Mean of the sums of FIC50 (mean ΣFIC50)” value by setting is: under setting [1], 1.37; under setting [2], 1.52; under setting [6], 1.41; under setting [7], 1.46; under setting [8], 1.23; under setting [9], 1.32. Moreover, the “Mean of the sums of FIC50 (mean ΣFIC50)” value by setting is: under setting [3], 1.33; under setting [4], 1.44; under setting [10], 1.30; under setting [11], 1.20; under setting [12], 1.20; under setting [13], 1.14.
With `O=C(NCCN1CCCC1)c1cc(-c2ccc(CN3CCOCC3)cc2)nc2ccc(F)cc12` [DDD107498], where the note is “asynchronous parasites, 72 hr”, the “Interaction with WLL or WLW” value is listed as “antagonism”. The “Mean of the sums of FIC50 (mean ΣFIC50)” value reads like this: under setting [1], 1.60; under setting [2], 1.65; under setting [3], 1.44; under setting [4], 1.28.
As for `O=C1C(O)=C([C@H]2CC[C@H](c3ccc(Cl)cc3)CC2)C(=O)c2ccccc21` [ATQ, atovaquone], the “Interaction with WLL or WLW” value under setting [15] was “Additive to antagonistic; also recorded: antagonism observed in asynchronous parasites and early rings was attenuated in trophozoites”. For the same molecule, the “Mean of the sums of FIC50 (mean ΣFIC50)” value stood at 1.22 under setting [1]; 1.33 under setting [2]; 1.54 under setting [6]; 1.64 under setting [7]; 0.99 under setting [8]; 1.11 under setting [9]. Besides, the “Mean of the sums of FIC50 (mean ΣFIC50)” value under setting [3] is reported as 1.16; the “Mean of the sums of FIC50 (mean ΣFIC50)” value under setting [4] was determined as 1.28; the “Mean of the sums of FIC50 (mean ΣFIC50)” value under setting [10] turned out to be 1.20; the “Mean of the sums of FIC50 (mean ΣFIC50)” value under setting [11] turned out to be 1.17; the “Mean of the sums of FIC50 (mean ΣFIC50)” value under setting [12] was found to be 1.07; the “Mean of the sums of FIC50 (mean ΣFIC50)” value under setting [13] was determined as 1.02.
As to `Cc1cc(Nc2ccc(S(F)(F)(F)(F)F)cc2)n2nc(C(C)(F)F)nc2n1` [DSM265], the “Interaction with WLL or WLW” value (asynchronous parasites, 72 hr) was “antagonism”. Further, the “Mean of the sums of FIC50 (mean ΣFIC50)” value by setting is: under setting [1], 1.46; under setting [2], 1.34; under setting [3], 1.30; under setting [4], 1.24.
With `C=CC(=O)N1C/C(=C\c2ccc([N+](=O)[O-])cc2)C(=O)/C(=C/c2ccc([N+](=O)[O-])cc2)C1` [b-AP15], the “Interaction with WLW (isobologram)” value under setting [14] is “synergy”. Moreover, the “Mean of the sums of FIC50 (mean ΣFIC50)” value by setting is: under setting [1], 1.11; under setting [2], 1.05; under setting [6], 0.77; under setting [7], 0.80; under setting [8], 0.66; under setting [9], 0.67. In addition, the “Mean of the sums of FIC50 (mean ΣFIC50)” value stood at 0.78 under setting [3]; 0.86 under setting [4]; 0.35 under setting [10]; 0.34 under setting [11]; 0.52 under setting [12]; 0.60 under setting [13]. For the same molecule, under “early rings and trophozoites”, the “Interaction with WLL (isobologram)” value is listed as “Synergy”.
